Experimental data published in the NIST ThermoML archive (doi:10.1021/je100734t).

Experiment: xn = mol fraction of the nth substance listed
Conditions: 101 kPa, Liquid; for speed of sound: Pulse-echo method

CCCCCCCCCO [nonan-1-ol] + CCc1ccccc1
Conditions | mass density, 293.15 K [kg/m3] | mass density, 303.15 K [kg/m3] | mass density, 313.15 K [kg/m3] | speed of sound, 293.15 K [m/s] | speed of sound, 303.15 K [m/s] | speed of sound, 313.15 K [m/s]
x2 = 0 | 827.7 | 820.82 | 813.88 | 1381 | 1347 | 1314
x2 = 0.0611 | 829.32 | 822.34 | 815.3 | 1378 | 1343 | 1309
x2 = 0.1285 | 831.14 | 824.06 | 816.91 | 1374 | 1338 | 1304
x2 = 0.1791 | 832.56 | 825.4 | 818.16 | 1371 | 1335 | 1300
x2 = 0.2466 | 834.5 | 827.23 | 819.87 | 1366 | 1330 | 1294
x2 = 0.3151 | 836.57 | 829.17 | 821.69 | 1362 | 1324 | 1288
x2 = 0.3717 | 838.35 | 830.85 | 823.26 | 1358 | 1320 | 1283
x2 = 0.4254 | 840.12 | 832.51 | 824.82 | 1354 | 1316 | 1279
x2 = 0.5007 | 842.74 | 834.99 | 827.14 | 1349 | 1311 | 1273
x2 = 0.5756 | 845.55 | 837.63 | 829.63 | 1345 | 1306 | 1267
x2 = 0.6411 | 848.19 | 840.11 | 831.97 | 1341 | 1302 | 1263
x2 = 0.7122 | 851.28 | 843.05 | 834.74 | 1339 | 1298 | 1259
x2 = 0.7798 | 854.46 | 846.08 | 837.59 | 1337 | 1296 | 1257
x2 = 0.8557 | 858.37 | 849.81 | 841.14 | 1336 | 1295 | 1255
x2 = 0.9341 | 862.85 | 854.1 | 845.28 | 1338 | 1295 | 1254

CCCCCCCCCCO [decan-1-ol] + CCc1ccccc1
Conditions | mass density, 293.15 K [kg/m3] | mass density, 303.15 K [kg/m3] | mass density, 313.15 K [kg/m3] | speed of sound, 293.15 K [m/s] | speed of sound, 303.15 K [m/s] | speed of sound, 313.15 K [m/s]
x2 = 0 | 829.98 | 823.1 | 816.27 | 1396 | 1362 | 1329
x2 = 0.0666 | 831.5 | 824.47 | 817.46 | 1391 | 1356 | 1322
x2 = 0.1392 | 833.18 | 826 | 818.82 | 1385 | 1350 | 1316
x2 = 0.1932 | 834.47 | 827.18 | 819.88 | 1381 | 1345 | 1310
x2 = 0.2642 | 836.24 | 828.8 | 821.32 | 1375 | 1339 | 1304
x2 = 0.3355 | 838.11 | 830.52 | 822.85 | 1369 | 1333 | 1297
x2 = 0.3936 | 839.72 | 832.03 | 824.21 | 1364 | 1327 | 1291
x2 = 0.4483 | 841.33 | 833.52 | 825.58 | 1360 | 1322 | 1286
x2 = 0.5238 | 843.73 | 835.78 | 827.65 | 1354 | 1316 | 1279
x2 = 0.598 | 846.33 | 838.23 | 829.91 | 1349 | 1310 | 1273
x2 = 0.6621 | 848.79 | 840.59 | 832.13 | 1344 | 1305 | 1268
x2 = 0.7309 | 851.72 | 843.4 | 834.8 | 1341 | 1301 | 1263
x2 = 0.7953 | 854.7 | 846.31 | 837.56 | 1338 | 1298 | 1259
x2 = 0.8668 | 858.41 | 849.96 | 841.06 | 1336 | 1295 | 1256
x2 = 0.9396 | 862.65 | 854.3 | 845.13 | 1336 | 1295 | 1255

CCCCCCCCCO [nonan-1-ol] + Cc1ccc(C)cc1
Conditions | mass density, 293.15 K [kg/m3] | mass density, 303.15 K [kg/m3] | mass density, 313.15 K [kg/m3] | speed of sound, 293.15 K [m/s] | speed of sound, 303.15 K [m/s] | speed of sound, 313.15 K [m/s]
x2 = 0 | 827.7 | 820.82 | 813.88 | 1381 | 1347 | 1314
x2 = 0.0611 | 829.31 | 822.32 | 815.27 | 1378 | 1343 | 1310
x2 = 0.1108 | 830.62 | 823.55 | 816.41 | 1375 | 1340 | 1306
x2 = 0.1652 | 832.08 | 824.91 | 817.67 | 1372 | 1336 | 1301
x2 = 0.226 | 833.72 | 826.44 | 819.1 | 1368 | 1331 | 1296
x2 = 0.2932 | 835.56 | 828.16 | 820.7 | 1363 | 1326 | 1290
x2 = 0.3651 | 837.59 | 830.07 | 822.47 | 1357 | 1320 | 1284
x2 = 0.4248 | 839.34 | 831.7 | 824 | 1353 | 1315 | 1278
x2 = 0.5023 | 841.69 | 833.91 | 826.07 | 1347 | 1308 | 1272
x2 = 0.558 | 843.46 | 835.58 | 827.63 | 1343 | 1304 | 1267
x2 = 0.6359 | 846.06 | 838.04 | 829.95 | 1338 | 1299 | 1261
x2 = 0.7123 | 848.77 | 840.61 | 832.39 | 1334 | 1294 | 1256
x2 = 0.7744 | 851.12 | 842.84 | 834.5 | 1332 | 1291 | 1252
x2 = 0.8514 | 854.23 | 845.81 | 837.33 | 1330 | 1289 | 1249
x2 = 0.9286 | 857.59 | 849.02 | 840.41 | 1329 | 1288 | 1248

CCCCCCCCCCO [decan-1-ol] + Cc1ccccc1C
Conditions | mass density, 293.15 K [kg/m3] | mass density, 303.15 K [kg/m3] | mass density, 313.15 K [kg/m3] | speed of sound, 293.15 K [m/s] | speed of sound, 303.15 K [m/s] | speed of sound, 313.15 K [m/s]
x2 = 0 | 829.98 | 823.1 | 816.27 | 1396 | 1362 | 1329
x2 = 0.0766 | 832.48 | 825.52 | 818.51 | 1394 | 1359 | 1325
x2 = 0.1331 | 834.38 | 827.33 | 820.23 | 1391 | 1356 | 1322
x2 = 0.1823 | 836.1 | 828.96 | 821.79 | 1389 | 1354 | 1319
x2 = 0.2509 | 838.57 | 831.31 | 824.05 | 1386 | 1350 | 1315
x2 = 0.3173 | 841.06 | 833.71 | 826.36 | 1383 | 1347 | 1311
x2 = 0.3896 | 843.95 | 836.48 | 829.02 | 1379 | 1343 | 1307
x2 = 0.4556 | 846.73 | 839.16 | 831.61 | 1376 | 1339 | 1303
x2 = 0.5261 | 849.91 | 842.23 | 834.57 | 1372 | 1335 | 1298
x2 = 0.6054 | 853.77 | 845.95 | 838.18 | 1369 | 1332 | 1294
x2 = 0.6597 | 856.61 | 848.71 | 840.85 | 1367 | 1329 | 1292
x2 = 0.7364 | 860.94 | 852.91 | 844.92 | 1365 | 1327 | 1289
x2 = 0.8029 | 865.03 | 856.89 | 848.8 | 1364 | 1325 | 1287
x2 = 0.873 | 869.74 | 861.49 | 853.27 | 1364 | 1325 | 1287
x2 = 0.9447 | 875.04 | 866.72 | 858.33 | 1366 | 1326 | 1287

Cc1cccc(C)c1 [1,3-dimethylbenzene] + CCCCCCCCCCO
Conditions | mass density, 293.15 K [kg/m3] | mass density, 303.15 K [kg/m3] | mass density, 313.15 K [kg/m3] | speed of sound, 293.15 K [m/s] | speed of sound, 303.15 K [m/s] | speed of sound, 313.15 K [m/s]
x1 = 0.0627 | 831.48 | 824.51 | 817.53 | 1392 | 1358 | 1324
x1 = 0.1424 | 833.39 | 826.27 | 819.18 | 1388 | 1352 | 1318
x1 = 0.2052 | 834.93 | 827.72 | 820.53 | 1383 | 1347 | 1312
x1 = 0.2618 | 836.35 | 829.06 | 821.78 | 1379 | 1343 | 1308
x1 = 0.3217 | 837.9 | 830.53 | 823.14 | 1375 | 1338 | 1302
x1 = 0.3934 | 839.84 | 832.37 | 824.85 | 1369 | 1332 | 1296
x1 = 0.4989 | 842.94 | 835.28 | 827.6 | 1361 | 1324 | 1287
x1 = 0.5581 | 844.81 | 837.05 | 829.26 | 1357 | 1319 | 1282
x1 = 0.6343 | 847.44 | 839.52 | 831.6 | 1352 | 1313 | 1276
x1 = 0.7131 | 850.41 | 842.31 | 834.24 | 1348 | 1308 | 1270
x1 = 0.7991 | 853.99 | 845.71 | 837.47 | 1344 | 1304 | 1265
x1 = 0.8465 | 856.11 | 847.74 | 839.4 | 1342 | 1302 | 1262
x1 = 0.8964 | 858.52 | 850.09 | 841.61 | 1341 | 1300 | 1260
x1 = 0.9421 | 860.9 | 852.38 | 843.82 | 1341 | 1300 | 1259
x1 = 1 | 864.18 | 855.56 | 846.9 | 1340 | 1300 | 1259
